Consider 20 compounds from patent publication US20070287699A1, “ANTIVIRAL AGENTS” (ViroBay, Inc., priority 2006, published 2007).

Each structure is given as a SMILES string.

This assay has as its system HCV replicon RNA replication in human Huh7 hepatoma cells. As to the kind of experiment: HCV replicon assay (activity levels from either or both of HCV replicon assay 1, Huh7/Clone A RT-qPCR, and assay 2, Huh7 ET luc-ubi-neo/ET). Type of assay: cell-based, Hepatitis C virus (HCV). The note with it: Hepatitis C virus, Huh-7, either or both HCV replicon assays: Huh7/Clone A, 48 hours, 72 hours, Luc activity or RT-PCR, read-out: inhibit HCV replication at IC50 levels or estimated IC50 levels. From the text: The HCV replicon assay is a cell-culture system that mimics in vivo HCV replication and provides a system to study HCV replication in vitro. It was created by transfecting cloned viral RNA derived from a consensus HCV genomic sequence into human Huh7 hepatoma cells that are semi-permissive for viral RNA production (Lohmann V., Korner F., Koch J.-O., Herian U., Theilmann L. and Bartenschlager R. (1999). Replication of subgenomic Hepatitis C virus RNAs in a hepatoma cell line. Science 285, 110-113 and Blight K. J., Kolykhalov A. A. and Rice C. M. (2000). Efficient initiation of HCV RNA Replication in cell culture. Science 290, […]). These transfected cell lines contain a subgenomic HCV RNA genome that includes (1) the HCV 5′NTR fused to 12 amino acids of the capsid coding region, (2) the neomycin phosphotransferase gene (Neo) as a selectable marker, (3) the internal ribosome entry site (IRES) from encephalomyocarditis virus (EMCV) that directs translation of HCV non-structural proteins (variously NS2 or NS3 to NS5B), and (4) the 3′ NTR. Replicon-containing cells autonomously and persistently replicate HCV RNA that can be measured quantitatively by real-time qPCR. Therefore, the replicon system facilitates quantitative assessment of anti-viral activity by monitoring changes in HCV RNA replication in a cell-based assay.
HCV replicon-containing cells (Huh7/Clone A) were routinely maintained in Clone A growth medium (DMEM medium [Invitrogen], supplemented with 10% Fetal Bovine Serum, 1% Non Essential Amino Acids and 1 g/L G418). Test compounds were dissolved in dimethyl sulfoxide (DMSO) to make 200× stock solutions for all doses prior to treatment.
For the HCV replicon assay, Huh7/Clone A cells were trypsinized from culture flasks, seeded in 1 ml of Clone A growth medium without G418 at 4×10^4 cells per well in 24-well plates and incubated at 37° C. in a humidified CO2 (5%) incubator overnight. Following overnight incubation, compound solutions were added into wells in the same volume (5 μl of 200× compound stock per well) to give a final DMSO concentration of 0.5%. Three wells on each plate supplemented with 5 μl of DMSO served as untreated controls. For IC50 determinations, compounds were tested at 7 serial dilutions in triplicates from the starting stock solutions. The plates were incubated at 37° C. for 48 hours. After incubation, cells were harvested, transferred to 96-well plates, and subjected to total RNA extraction using the RNA Isolation Kit (RNeasy 96, Qiagen) according to the protocol described by the manufacture's RNeasy 96 Handbook (Qiagen).
Total RNA eluted in 130 μl of RNase-free dH2O was quantitated by the RiboGreen Assay according to the supplier's protocol (Molecular Probe). Briefly, 5 μl of RNA samples were aliquoted in duplicate to a 96-well black microplate and a 96-well TaqMan Optical plate. RNA samples in the black microplate were mixed with 95 μl of diluted RiboGreen:reagent (1:250 dilution in TE buffer) and sample fluorescence was measured using a fluorescence microplate reader at standard fluorescein wavelengths (excitation ˜480 nm, emission ˜520 nm). Ribosomal RNA (Molecular Probe) was used as standard.
TaqMan quantitative PCR (RT-qPCR) was used to quantitate the amount of HCV replicon RNA in each sample. The RT-qPCR reactions were performed in 25 μl on an ABI PRISM 7900 HT Sequence Detection System (Applied Biosystems). The reaction mixture contained 5 μl of total RNA (10-100 ng), 1× TaqMan Buffer A (Applied Biosystems), 5.5 mM MgCl2, 1.2 mM dNTP mix, 0.625 U of AmpliTaq Gold (Applied Biosystems), 5 U of MMLV reverse transcriptase (Promega), 5 U of rRNasin (Promega), 300 nM each of the forward and reverse primers, and 100 nM TaqMan MGB probe. Primers and probe were designed to hybridize to a portion of the neomycin resistance gene (neo) in the replicon and the sequences are as follows: forward primer 5′-GGCTACCTGCCCATTCGA-3′; reverse primer 5′-CCGGCTTCCATCCGAGTAC-3′; MGB probe 5′-CCACCAAGCGAAACA-3′. […]

What is called IC50 is the concentration that gives 50% inhibition. For `NC(=O)Cc1ccc2c(c1)c(=O)c(-c1noc(Cc3ccccc3)n1)cn2Cc1ccc(C(F)(F)F)cc1F` [Compound 105, 2-(3-(5-benzyl-1,2,4-oxadiazol-3-yl)-1-(2-fluoro-4-(trifluoromethyl)benzyl)-4-oxo-1,4-dihydroquinolin-6-yl)acetamide], the IC50 was > 10 µM.
Regarding `CN1CCN(c2cc3c(cc2F)c(=O)c(-c2noc(Cc4ccccc4CC(=O)O)n2)cn3Cc2ccc(Cl)cc2)CC1` [Compound 22, (2-{3-[1-(4-chloro-benzyl)-6-fluoro-7-(4-methyl-piperazin-1-yl)-4-oxo-1,4-dihydro-quinolin-3-yl]-[1,2,4]oxadiazol-5-ylmethyl}-phenyl)-acetic acid], the IC50 is > 10 µM.
Regarding `CN1CCN(c2cc3c(cc2F)c(=O)c(-c2noc(CC4CCCC4)n2)cn3Cc2ccc(C(F)(F)F)cc2F)CC1` [Compound 17, 3-(5-cyclopentylmethyl-[1,2,4]oxadiazol-3-yl)-6-fluoro-1-(2-fluoro-4-trifluoromethyl-benzyl)-7-(4-methyl-piperazin-1-yl)-1H-quinolin-4-one], the half-maximal inhibitory concentration (IC50) is < 2 µM.
The result for `CN1CCN(c2cc3c(cc2F)c(=O)c(-c2noc(C(CCCC#N)c4ccccc4)n2)cn3Cc2ccc(Cl)cc2)CC1` (centres unmarked) [Compound 63, 5-{3-[1-(4-chloro-benzyl)-6-fluoro-7-(4-methyl-piperazin-1-yl)-4-oxo-1,4-dihydro-quinolin-3-yl]-[1,2,4]oxadiazol-5-yl}-5-phenyl-pentanenitrile] reads < 2 µM; that for `CC(C)(c1ccc(Cl)cc1)c1nc(-c2cn(Cc3ccc(C(F)(F)F)cc3)c3cc(N4CCS(=O)(=O)CC4)c(F)cc3c2=O)no1` [Compound 127, 3-(5-(2-(4-chlorophenyl)propan-2-yl)-1,2,4-oxadiazol-3-yl)-6-fluoro-7-dioxo-thiomorpholino-1-(4-(trifluoromethyl)benzyl)quinolin-4(1H)-one], < 10 µM.
As to `COc1cc2c(=O)c(-c3nnc(Cc4ccc(Cl)cc4)o3)cn(CC3CCCCC3)c2cc1OC` [Compound 163, 3-[5-(4-chloro-benzyl)-[1,3,4]oxadiazol-2-yl]-1-cyclohexylmethyl-6,7-dimethoxy-1H-quinolin-4-one], the IC50 was > 10 µM.
With `CC(C)(c1ccc(F)cc1)c1nnc(-c2cn(Cc3ccc(C(F)(F)F)cc3)c3cc(N4CCOCC4)c(F)cc3c2=O)o1` [Compound 161, 6-fluoro-3-(5-(2-(4-fluorophenyl)propan-2-yl)-1,3,4-oxadiazol-2-yl)-7-morpholino-1-(4-(trifluoromethyl)benzyl)quinolin-4(1H)-one], the IC50 was < 2 µM.
The result for `CN1CCN(c2cc3c(cc2F)c(=O)c(-c2noc(C(CC(=O)O)c4ccccc4)n2)cn3Cc2ccc(Cl)cc2)CC1` (centres unmarked) [Compound 31, 3-{3-[1-(4-chloro-benzyl)-6-fluoro-7-(4-methyl-piperazin-1-yl)-4-oxo-1,4-dihydro-quinolin-3-yl]-[1,2,4]oxadiazol-5-yl}-3-phenyl-propionic acid] reads > 10 µM; that for `NCCNc1cc2c(cc1F)c(=O)c(-c1noc(Cc3ccccc3)n1)cn2Cc1ccc(C(F)(F)F)cc1` [Compound 75, 7-(2-amino-ethylamino)-3-(5-benzyl-[1,2,4]oxadiazol-3-yl)-6-fluoro-1-(4-trifluoromethyl-benzyl)-1H-quinolin-4-one], > 10 µM; that for `CC(C)(c1ccccc1)c1nc(-c2cn(Cc3ccc(C(F)(F)F)cc3)c3cc(N4CCS(=O)(=O)CC4)c(F)cc3c2=O)no1` [Compound 100, 7-(1,1-dioxo-thiomorpholin-4-yl)-6-fluoro-3-[5-(1-methyl-1-phenyl-ethyl)-[1,2,4]oxadiazol-3-yl]-1-(4-trifluoromethyl-benzyl)-1H-quinolin-4-one], < 0.5 µM.
For the compound `Cc1ccccc1Cc1nc(-c2cn(CC3CCCCC3)c3cc(N4CCN(C)CC4)c(F)cc3c2=O)no1` [Compound 20, 1-cyclohexylmethyl-6-fluoro-3-[5-(2-methyl-benzyl)-[1,2,4]oxadiazol-3-yl]-7-(4-methyl-piperazin-1-yl)-1H-quinolin-4-one], the IC50 was < 10 µM.
Take `CN1CCN(c2cc3c(cc2F)c(=O)c(-c2noc(Cc4ccccc4)n2)cn3Cc2ccccc2F)CC1` [Compound 45, 3-(5-benzyl-[1,2,4]oxadiazol-3-yl)-6-fluoro-1-(2-fluoro-benzyl)-7-(4-methyl-piperazin-1-yl)-1H-quinolin-4-one]: the IC50 is < 10 µM.
With `CN1CCN(c2cc3c(cc2F)c(=O)c(-c2noc(Cc4ccccn4)n2)cn3Cc2ccc(Cl)cc2)CC1` [Compound 61, 1-(4-chloro-benzyl)-6-fluoro-7-(4-methyl-piperazin-1-yl)-3-(5-pyridin-2-ylmethyl-[1,2,4]oxadiazol-3-yl)-1H-quinolin-4-one] the figure was > 10 µM; with `CC(C)(c1ccc(F)cc1)c1nc(-c2cn(Cc3ccc(F)cc3)c3cc(F)c(F)cc3c2=O)no1` [Compound 155, 6,7-difluoro-1-(4-fluorobenzyl)-3-(5-(2-(4-fluorophenyl)propan-2-yl)-1,2,4-oxadiazol-3-yl)quinolin-4(1H)-one], > 10 µM; with `CN1CCN(c2cc3c(cc2F)c(=O)c(-c2noc(C(CCCC(N)=O)c4ccccc4)n2)cn3Cc2ccc(Cl)cc2)CC1` (centres unmarked) [Compound 80, 5-{3-[1-(4-chloro-benzyl)-6-fluoro-7-(4-methyl-piperazin-1-yl)-4-oxo-1,4-dihydro-quinolin-3-yl]-[1,2,4]oxadiazol-5-yl}-5-phenyl-pentanamide], < 2 µM.
The result for `O=C(O)Cc1ccc2c(c1)c(=O)c(-c1noc(Cc3ccccc3)n1)cn2Cc1ccc(C(F)(F)F)cc1F` [Compound 76, [3-(5-benzyl-[1,2,4]oxadiazol-3-yl)-1-(2-fluoro-4-trifluoromethyl-benzyl)-4-oxo-1,4-dihydro-quinolin-6-yl]-acetic acid] reads > 10 µM; that for `CN1CCN(c2cc3c(cc2F)c(=O)c(-c2noc(Cc4ccccc4)n2)cn3CC2CCCCC2)CC1` [Compound 9, 3-(5-benzyl-[1,2,4]oxadiazol-3-yl)-1-cyclohexylmethyl-6-fluoro-7-(4-methyl-piperazin-1-yl)-1H-quinolin-4-one], < 2 µM.
With `CN1CCCN(c2nc3c(cc2F)c(=O)c(-c2noc(C(C)(C)c4ccccc4)n2)cn3Cc2ccc(C(F)(F)F)cc2)CC1` [Compound 103, 6-fluoro-7-(4-methyl-[1,4]diazepan-1-yl)-3-[5-(1-methyl-1-phenyl-ethyl)-[1,2,4]oxadiazol-3-yl]-1-(4-trifluoromethyl-benzyl)-1H-[1,8]naphthyridin-4-one] the figure was < 2 µM; with `CN1CCN(c2cc3c(cc2F)c(=O)c(-c2noc(Cc4ccc(F)cc4)n2)cn3Cc2ccc(C(F)(F)F)cc2F)CC1` [Compound 23, 6-fluoro-3-[5-(4-fluoro-benzyl)-[1,2,4]oxadiazol-3-yl]-1-(2-fluoro-4-trifluoromethyl-benzyl)-7-(4-methyl-piperazin-1-yl)-1H-quinolin-4-one], < 2 µM.
In the case of `CN1CCN(c2cc3c(cc2F)c(=O)c(-c2noc(C(CCCCNC(=O)OC(C)(C)C)c4ccccc4)n2)cn3Cc2ccc(Cl)cc2)CC1` (centres unmarked) [Compound 86, tert-butyl (5-{3-[1-(4-chloro-benzyl)-6-fluoro-7-(4-methyl-piperazin-1-yl)-4-oxo-1,4-dihydro-quinolin-3-yl]-[1,2,4]oxadiazol-5-yl}-5-phenyl-pentyl)-carbamate], the IC50 is < 10 µM.
